Measurements published in publication PMC4987127 (Leukemia, 2015).

Experiments:
HL60 = HL60 ref 11; cited from earlier work
FLT3 kinase = FLT3 kinase (Homo sapiens, UniProt P36888); assay: Binding mode examination; conditions: molecular modeling, confirmed by washing-out experiment
PLCγ = assay: BTK signaling in AML cell lines: downstream mediators; format: cell-based; conditions: for effect on PLCγ phosphorylation: direct downstream target of BTK
[1] = tested on: OCI-AML3 and NOMO-1 cells; assay: FLT3-mediated signaling in FLT3 low expression cell lines; format: cell-based
FLT3-D835H-BaF3 = assay: Isogenic BaF3 cell proliferation; format: cell-based; conditions: Mus musculus
NRAS Ba/F3 cells = assay: Oncogene-expressing Ba/F3 cell growth; format: cell-based
BCR-ABL Ba/F3 cells = assay: Oncogene-expressing Ba/F3 cell growth; format: cell-based
[2] = tested on: BTK-KD MOLM14 and MOLM13 cells; conditions: BTK knockdown MOLM14 and MOLM13
PDGFRα Ba/F3 cells = assay: Oncogene-expressing Ba/F3 cell growth; format: cell-based
[3] = tested on: FLT3-ITD mutant-expressing primary patient cells; assay: Anti-proliferation on primary patient cells; format: cell-based
THP-1 = THP-1 ref 11; cited from earlier work
TEL-FLT3-wt-BaF3 = assay: Isogenic BaF3 cell proliferation; format: cell-based; conditions: Mus musculus
U937 cells = U937 cells ref 11; cited from earlier work
ITD-D835Y = assay: Isogenic BaF3 cell proliferation; format: cell-based
TF-1 = TF-1 ref 11; cited from earlier work
ITD-F691L = assay: Isogenic BaF3 cell proliferation; format: cell-based
[4] = tested on: FLT3-ITD-dependent isogenic BaF3 cell line; assay: Isogenic BaF3 cell proliferation; format: cell-based
FLT3-ITD cell lines = assay: Apoptotic cell death; format: cell-based; conditions: concentration- and time-dependent
c-Kit Ba/F3 cells = assay: Oncogene-expressing Ba/F3 cell growth; format: cell-based
FLT3-K663Q = assay: Isogenic BaF3 cell proliferation; format: cell-based
[5] = tested on: FLT3-ITD mutant AML cell lines (MOLM13, MOLM14 and MV4-11); assay: Proliferation screen of a panel of AML cell lines; format: cell-based; conditions: panel of AML cell lines spanning M0–M7; only FLT3-ITD mutant lines MOLM13, MOLM14, MV4-11
FLT3-D835Y-BaF3 = assay: Isogenic BaF3 cell proliferation; format: cell-based; conditions: Mus musculus
[6] = tested on: FLT3-mediated signaling pathways; assay: FLT3-mediated signaling pathways in FLT3-ITD positive cell lines; format: cell-based
AKT and ERK = assay: Phosphorylation of AKT and ERK in AML cell lines; format: cell-based
BTK kinase = BTK kinase (Homo sapiens, UniProt Q06187); assay: BTK signaling in AML cell lines: BTK phosphorylation; format: cell-based; conditions: FLT3 wt and FLT3-ITD cell lines
Chain of BTK kinase (Q06187 whole entry): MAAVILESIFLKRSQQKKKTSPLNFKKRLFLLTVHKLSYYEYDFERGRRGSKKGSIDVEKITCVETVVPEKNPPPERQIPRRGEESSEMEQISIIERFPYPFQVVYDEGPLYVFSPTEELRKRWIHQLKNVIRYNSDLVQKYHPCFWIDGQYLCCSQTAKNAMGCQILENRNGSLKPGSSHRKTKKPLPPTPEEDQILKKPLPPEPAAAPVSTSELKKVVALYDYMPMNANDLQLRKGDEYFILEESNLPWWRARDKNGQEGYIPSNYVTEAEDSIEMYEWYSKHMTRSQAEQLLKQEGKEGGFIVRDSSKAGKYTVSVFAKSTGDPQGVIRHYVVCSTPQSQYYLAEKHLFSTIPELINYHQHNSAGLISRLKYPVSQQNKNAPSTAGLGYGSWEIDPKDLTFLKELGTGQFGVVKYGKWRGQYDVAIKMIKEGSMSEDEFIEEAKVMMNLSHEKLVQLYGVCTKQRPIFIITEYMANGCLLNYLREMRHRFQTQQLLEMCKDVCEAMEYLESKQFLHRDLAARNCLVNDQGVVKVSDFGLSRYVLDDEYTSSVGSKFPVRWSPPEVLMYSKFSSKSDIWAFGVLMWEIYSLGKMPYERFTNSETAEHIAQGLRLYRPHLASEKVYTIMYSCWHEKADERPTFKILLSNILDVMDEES

Chain of FLT3 kinase (P36888 27-993): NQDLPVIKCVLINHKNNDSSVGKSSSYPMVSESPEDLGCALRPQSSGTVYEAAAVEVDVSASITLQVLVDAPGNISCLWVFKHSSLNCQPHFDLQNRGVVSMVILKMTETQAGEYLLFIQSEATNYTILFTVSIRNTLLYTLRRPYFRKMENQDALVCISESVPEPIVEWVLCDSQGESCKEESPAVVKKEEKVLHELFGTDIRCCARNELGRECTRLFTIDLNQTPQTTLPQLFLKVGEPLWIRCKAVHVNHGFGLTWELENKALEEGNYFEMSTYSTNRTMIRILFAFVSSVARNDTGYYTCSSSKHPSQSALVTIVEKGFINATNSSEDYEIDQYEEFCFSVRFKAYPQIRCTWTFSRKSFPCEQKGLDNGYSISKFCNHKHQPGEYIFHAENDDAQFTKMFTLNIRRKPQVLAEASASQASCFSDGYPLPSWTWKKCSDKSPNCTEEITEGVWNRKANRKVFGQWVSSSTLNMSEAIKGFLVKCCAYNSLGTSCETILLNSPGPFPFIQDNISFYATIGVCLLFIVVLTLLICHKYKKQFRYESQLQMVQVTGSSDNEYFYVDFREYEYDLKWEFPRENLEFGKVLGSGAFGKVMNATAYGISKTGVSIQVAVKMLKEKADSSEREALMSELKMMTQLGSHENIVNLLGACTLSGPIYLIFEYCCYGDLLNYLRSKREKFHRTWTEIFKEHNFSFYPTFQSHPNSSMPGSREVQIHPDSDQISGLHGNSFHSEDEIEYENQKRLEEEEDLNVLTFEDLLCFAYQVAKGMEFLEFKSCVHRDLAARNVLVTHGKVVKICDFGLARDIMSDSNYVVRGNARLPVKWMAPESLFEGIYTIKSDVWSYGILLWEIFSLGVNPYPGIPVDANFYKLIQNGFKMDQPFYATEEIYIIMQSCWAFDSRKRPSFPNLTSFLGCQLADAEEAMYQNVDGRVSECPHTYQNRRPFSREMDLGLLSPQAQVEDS

SMILES: C=CC(=O)N1CCC[C@@H](n2nc(-c3ccc(Oc4ccccc4)cc3)c3c(N)ncnc32)C1 [ibrutinib, Ibrutinib]
- activity against AML cell line (HL60): no apparent activity
- mode of inhibition of FLT3 kinase (FLT3 kinase): reversible binding
- effect on downstream mediators of BTK kinase (PLCγ; only in FLT3 wt-expressing cell lines (NOMO-1 and OCI-AML3)): affected
- effect on FLT3-related signaling [1]: not affected
- GI50 (FLT3-D835H-BaF3): 63 nM
- effect on growth (NRAS Ba/F3 cells): did not affect the growth
- effect on growth (BCR-ABL Ba/F3 cells): did not affect the growth
- growth of BTK-KD cells [2]: significantly blocked the growth
- effect on growth (PDGFRα Ba/F3 cells): did not affect the growth
- anti-proliferation activity [3]: dose-dependent anti-proliferation activity
- activity against AML cell line (THP-1): no apparent activity
- GI50 (TEL-FLT3-wt-BaF3): 460 nM
- inhibition of proliferation (U937 cells): moderate inhibition of proliferation
- activity against mutation (ITD-D835Y): less active
- activity against AML cell line (TF-1): no apparent activity
- activity against mutation (ITD-F691L): less active
- rescue of inhibitory effect by IL-3 treatment ([4]; FLT3-ITD BaF3 with IL-3): completely rescued
- GI50 ([4]; Mus musculus, BaF3): 120 nM
- apoptotic cell death (FLT3-ITD cell lines): induced apoptotic cell death
- effect on growth (c-Kit Ba/F3 cells): did not affect the growth
- activity against mutation (FLT3-K663Q): less active
- sensitivity to ibrutinib (proliferation) [5]: sensitive
- GI50 (FLT3-D835Y-BaF3): 500 nM

SMILES: Cc1c(NC(=O)c2ccc(C(C)(C)C)cc2)cccc1-c1cn(C)c(=O)c(Nc2ccc(C(=O)N3CCOCC3)cc2)n1 [CGI-1746]
- effect on PLCγ phosphorylation (PLCγ): effective
- effect on FLT3-mediated signaling [6]: did not exhibit any effect
- effect on phosphorylation of AKT and ERK (AKT and ERK): no effect

SMILES: CC(C)(C)c1cc(NC(=O)Nc2ccc(-c3cn4c(n3)sc3cc(OCCN5CCOCC5)ccc34)cc2)no1 [AC220]
- effect on PLCγ phosphorylation (PLCγ): did not affect
- effect on phosphorylation of AKT and ERK (AKT and ERK): inhibited
- effect on BTK kinase phosphorylation/activity (BTK kinase): did not affect

SMILES: C=CC(=O)Nc1cccc(Nc2nc(Nc3ccc(OCCOC)cc3)ncc2F)c1 [AVL-292]
- effect on PLCγ phosphorylation (PLCγ): effective
- effect on FLT3-mediated signaling [6]: did not exhibit any effect
- effect on phosphorylation of AKT and ERK (AKT and ERK): no effect
- effect on BTK kinase phosphorylation/activity (BTK kinase): effective
